From PubChem BioAssay AID248 (DTP/NCI, 2004)
“And” between values parts separate entries of the source, which are not always exact repeats. Equal entries are not always repeated. Toxic doses and inconclusive results are not listed. Cut-off read from the data, not from the text of the source: active = T/C of 150% or more; inactive = T/C below 125%.

Test system: L1210 leukemia ip in BDF1 mice, survival T/C
Assay: NCI In Vivo Anticancer Drug Screen. Data for tumor model L1210 Leukemia (intraperitoneal) in B6D2F1 (BDF1) mice
Settings: endpoint: mean survival time, higher = longer survival
Summary of the method: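 Transplanted-tumor mice were given test agent; controls received vehicle only. Survival readings from the two groups were divided (treated over control).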

[1] = dose: 100.0 mg/kg/injection, schedule: Q01DX009 (ip), vehicle: Klucel (hydroxypropylcellulose) (HPC)
[2] = dose: 100.0 mg/kg/injection, schedule: Q04DX003 (ip), vehicle: Klucel (hydroxypropylcellulose) (HPC)
[3] = dose: 200.0 mg/kg/injection, schedule: Q01DX009 (ip), vehicle: Klucel (hydroxypropylcellulose) (HPC)
[4] = dose: 200.0 mg/kg/injection, schedule: Q04DX003 (ip), vehicle: Klucel (hydroxypropylcellulose) (HPC)
[5] = dose: 400.0 mg/kg/injection, schedule: Q01DX009 (ip), vehicle: Klucel (hydroxypropylcellulose) (HPC)
[6] = dose: 400.0 mg/kg/injection, schedule: Q04DX003 (ip), vehicle: Klucel (hydroxypropylcellulose) (HPC)
[7] = dose: 400.0 mg/kg/injection, schedule: Q01DX001 (ip), vehicle: other
[8] = dose: 100.0 mg/kg/injection, schedule: Q04DX003 (ip), vehicle: saline with Tween-80

Measured: T/C

O=CNCC(=O)O
inactive: dose: 100.0 mg/kg/injection, schedule: Q04DX002 (ip), vehicle: saline 92 % of control | dose: 100.0 mg/kg/injection, schedule: Q04DX003 (ip), vehicle: saline 97 % of control | dose: 200.0 mg/kg/injection, schedule: Q04DX002 (ip), vehicle: saline 95 % of control | dose: 200.0 mg/kg/injection, schedule: Q04DX003 (ip), vehicle: saline 94 % of control | dose: 400.0 mg/kg/injection, schedule: Q04DX002 (ip), vehicle: saline 92 % of control | dose: 400.0 mg/kg/injection, schedule: Q04DX003 (ip), vehicle: saline 106 % of control

COc1ccc(N=C(c2ccccc2)c2ccc([N+](=O)[O-])cc2)cc1
inactive: [1] 91 % of control | [2] 93 % of control | [3] 101 % of control | [4] 98 % of control | [5] 98 % of control | [6] 98 % of control

O=C(N/N=C\c1ccc(N(CCCl)CCCl)cc1)c1ccccn1
inactive: dose: 50.0 mg/kg/injection, schedule: Q01DX001 (ip), vehicle: carboxymethylcellulose (CMC) 108 % of control | dose: 100.0 mg/kg/injection, schedule: Q01DX001 (ip), vehicle: carboxymethylcellulose (CMC) 108 % of control | dose: 200.0 mg/kg/injection, schedule: Q01DX001 (ip), vehicle: carboxymethylcellulose (CMC) 103 % of control | dose: 400.0 mg/kg/injection, schedule: Q01DX001 (ip), vehicle: carboxymethylcellulose (CMC) 100 % of control

CC1(C)C2CCC(CN=C(N)CSS(=O)(=O)O)C1C2 (stereo not given)
inactive: dose: 3.13 mg/kg/injection, schedule: Q04DX002 (ip), vehicle: saline with Tween-80 91 % of control | dose: 6.25 mg/kg/injection, schedule: Q04DX002 (ip), vehicle: saline with Tween-80 100 % of control and 107 % of control | dose: 12.5 mg/kg/injection, schedule: Q04DX002 (ip), vehicle: saline with Tween-80 104 % of control | dose: 25.0 mg/kg/injection, schedule: Q04DX002 (ip), vehicle: saline with Tween-80 93 % of control

CCCCN(C)N=Nc1ccccc1C(N)=O
inactive: dose: 89.0 mg/kg/injection, schedule: Q01DX009 (ip), vehicle: Klucel (hydroxypropylcellulose) (HPC) 108 % of control | dose: 89.0 mg/kg/injection, schedule: Q01DX009 (ip), vehicle: other 108 % of control | dose: 133.0 mg/kg/injection, schedule: Q01DX009 (ip), vehicle: Klucel (hydroxypropylcellulose) (HPC) 122 % of control | dose: 133.0 mg/kg/injection, schedule: Q01DX009 (ip), vehicle: other 122 % of control | dose: 177.0 mg/kg/injection, schedule: Q01DX001 (ip), vehicle: other 97 % of control | [3] 115 % of control | dose: 200.0 mg/kg/injection, schedule: Q01DX009 (ip), vehicle: other 108 % of control | dose: 266.0 mg/kg/injection, schedule: Q01DX001 (ip), vehicle: other 113 % of control | dose: 300.0 mg/kg/injection, schedule: Q01DX009 (ip), vehicle: Klucel (hydroxypropylcellulose) (HPC) 111 % of control and 124 % of control | dose: 300.0 mg/kg/injection, schedule: Q01DX009 (ip), vehicle: other 95 % of control and 90 % of control | [7] 101 % of control

CC1CCC(=C(c2ccccc2)c2ccccc2)C(C)N1C (stereo not given)
inactive: dose: 25.0 mg/kg/injection, schedule: Q01DX009 (ip), vehicle: saline with Tween-80 98 % of control | dose: 25.0 mg/kg/injection, schedule: Q04DX003 (ip), vehicle: saline with Tween-80 107 % of control | dose: 50.0 mg/kg/injection, schedule: Q01DX009 (ip), vehicle: saline with Tween-80 98 % of control | dose: 50.0 mg/kg/injection, schedule: Q04DX003 (ip), vehicle: saline with Tween-80 96 % of control | dose: 100.0 mg/kg/injection, schedule: Q01DX009 (ip), vehicle: saline with Tween-80 90 % of control | [8] 98 % of control and 101 % of control

O=C(Sc1cccc2ccccc12)c1ccc([N+](=O)[O-])cc1
inactive: [2] 95 % of control | [4] 97 % of control | [6] 95 % of control

O=C(CCCC(=O)N/N=C/c1ccc2ccccc2n1)N/N=C\c1ccc2ccccc2n1
inactive: dose: 50.0 mg/kg/injection, schedule: Q01DX001 (ip), vehicle: other 95 % of control | dose: 100.0 mg/kg/injection, schedule: Q01DX001 (ip), vehicle: other 88 % of control | [7] 95 % of control

COc1ccc2c(c1)CC/C(=C\c1ccccn1)C2=O
inactive: dose: 100.0 mg/kg/injection, schedule: Q04DX003 (ip), vehicle: carboxymethylcellulose (CMC) 98 % of control | dose: 200.0 mg/kg/injection, schedule: Q04DX003 (ip), vehicle: carboxymethylcellulose (CMC) 97 % of control | dose: 400.0 mg/kg/injection, schedule: Q04DX003 (ip), vehicle: carboxymethylcellulose (CMC) 98 % of control

COC(=O)c1ccc(N(C)CCC(=O)COC(C)=O)cc1
inactive: dose: 100.0 mg/kg/injection, schedule: Q01DX001 (ip), vehicle: saline 103 % of control | dose: 200.0 mg/kg/injection, schedule: Q01DX001 (ip), vehicle: saline 97 % of control | dose: 400.0 mg/kg/injection, schedule: Q01DX001 (ip), vehicle: saline 95 % of control

O=C(O)COc1ccc(F)c(F)c1F
inactive: dose: 100.0 mg/kg/injection, schedule: Q04DX002 (ip), vehicle: other 107 % of control | dose: 200.0 mg/kg/injection, schedule: Q04DX002 (ip), vehicle: other 100 % of control | dose: 400.0 mg/kg/injection, schedule: Q04DX002 (ip), vehicle: other 91 % of control

Nc1nc(N)n(Cc2ccc3c(c2)OCO3)n1
inactive: dose: 100.0 mg/kg/injection, schedule: Q01DX001 (ip), vehicle: saline with Tween-80 106 % of control | [8] 104 % of control | dose: 200.0 mg/kg/injection, schedule: Q01DX001 (ip), vehicle: saline with Tween-80 104 % of control | dose: 200.0 mg/kg/injection, schedule: Q01DX009 (ip), vehicle: saline with Tween-80 87 % of control | dose: 200.0 mg/kg/injection, schedule: Q04DX003 (ip), vehicle: saline with Tween-80 101 % of control | dose: 400.0 mg/kg/injection, schedule: Q01DX001 (ip), vehicle: saline with Tween-80 108 % of control | dose: 400.0 mg/kg/injection, schedule: Q01DX009 (ip), vehicle: saline with Tween-80 101 % of control | dose: 400.0 mg/kg/injection, schedule: Q04DX003 (ip), vehicle: saline with Tween-80 102 % of control

O=[N+]([O-])c1cc(S(=O)(=O)F)ccc1F
inactive: dose: 0.07 mg/kg/injection, schedule: Q01DX009 (ip), vehicle: carboxymethylcellulose (CMC) 97 % of control | dose: 0.15 mg/kg/injection, schedule: Q01DX009 (ip), vehicle: carboxymethylcellulose (CMC) 100 % of control | dose: 0.31 mg/kg/injection, schedule: Q01DX009 (ip), vehicle: carboxymethylcellulose (CMC) 100 % of control | dose: 0.31 mg/kg/injection, schedule: Q04DX003 (ip), vehicle: carboxymethylcellulose (CMC) 92 % of control | dose: 0.46 mg/kg/injection, schedule: Q01DX009 (ip), vehicle: carboxymethylcellulose (CMC) 103 % of control | dose: 0.62 mg/kg/injection, schedule: Q04DX003 (ip), vehicle: carboxymethylcellulose (CMC) 92 % of control | dose: 0.7 mg/kg/injection, schedule: Q01DX009 (ip), vehicle: carboxymethylcellulose (CMC) 96 % of control | dose: 1.05 mg/kg/injection, schedule: Q01DX009 (ip), vehicle: carboxymethylcellulose (CMC) 92 % of control | dose: 1.5 mg/kg/injection, schedule: Q01DX009 (ip), vehicle: other 94 % of control | dose: 2.3 mg/kg/injection, schedule: Q01DX009 (ip), vehicle: other 89 % of control | dose: 3.4 mg/kg/injection, schedule: Q01DX009 (ip), vehicle: other 89 % of control | dose: 5.0 mg/kg/injection, schedule: Q01DX009 (ip), vehicle: other 87 % of control | dose: 10.0 mg/kg/injection, schedule: Q01DX001 (ip), vehicle: carboxymethylcellulose (CMC) 90 % of control

O=C(CNS(=O)(=O)c1ccccc1)c1ccc(Cl)cc1Cl
inactive: [1] 94 % of control | [3] 105 % of control | [5] 95 % of control

NC(CSS(=O)(=O)O)=NCCCc1c[nH]c2ccccc12
inactive: dose: 12.5 mg/kg/injection, schedule: Q04DX002 (ip), vehicle: Klucel (hydroxypropylcellulose) (HPC) 100 % of control | dose: 25.0 mg/kg/injection, schedule: Q04DX002 (ip), vehicle: Klucel (hydroxypropylcellulose) (HPC) 107 % of control | dose: 50.0 mg/kg/injection, schedule: Q04DX002 (ip), vehicle: Klucel (hydroxypropylcellulose) (HPC) 107 % of control

NC(=O)c1cc2ccccc2[n+](Cc2ccc(F)cc2)c1
inactive: dose: 75.0 mg/kg/injection, schedule: Q01DX001 (ip), vehicle: saline 107 % of control
